Results from patent publication US5034391A, “Piperazinylalkyl-3(2H)-pyridazinones and the use thereof as agents lowering blood pressure” (CL Pharma Aktiengesellschaft, priority 1988, dated 1991).

Tests used:
alpha1 adrenoceptors = molecular target: T1, alpha1 adrenoceptors (Rattus norvegicus, UniProt P15823); assay: Affinity for alpha1 adrenoceptors: displacement of tritiated prazosin on rat cardiac membranes; format: binding; conditions: Ki from IC50 by Cheng and Prusoff, read-out: Inhibition constants at alpha-1-adrenoceptor (Ki)
T1 construct: from tissue; host or cells: rat cardiac membranes
T1 sequence (P15823 1-515): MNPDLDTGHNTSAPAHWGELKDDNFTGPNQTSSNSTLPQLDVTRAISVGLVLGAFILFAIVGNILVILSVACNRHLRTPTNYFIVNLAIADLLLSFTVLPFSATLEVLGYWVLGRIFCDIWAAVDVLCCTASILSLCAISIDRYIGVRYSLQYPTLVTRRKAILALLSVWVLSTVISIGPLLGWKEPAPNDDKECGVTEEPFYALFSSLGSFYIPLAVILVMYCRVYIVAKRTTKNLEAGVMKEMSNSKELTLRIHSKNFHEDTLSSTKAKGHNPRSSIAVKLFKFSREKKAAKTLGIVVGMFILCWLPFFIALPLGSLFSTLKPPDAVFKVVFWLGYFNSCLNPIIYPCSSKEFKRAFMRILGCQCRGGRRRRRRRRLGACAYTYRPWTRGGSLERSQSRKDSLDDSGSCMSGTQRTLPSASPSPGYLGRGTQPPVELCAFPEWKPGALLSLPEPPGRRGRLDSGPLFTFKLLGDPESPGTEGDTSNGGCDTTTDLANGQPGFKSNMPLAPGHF
Procedure: The affinity of compounds of the general formula I for alpha1 adrenoceptors was established using the method described by R. S. Williams, D. F. Dukes and […] in J. Cardiovasc. Pharmacol. 3, 522-531 (1981). In this method the competitive displacement of tritiated prazosin (2-(4-(2-furoyl)-1-piperazinyl)-4-amino-6,7-dimethoxy-quinazoline) on rat-cardiac membranes by the test substances is measured, and the IC50 (50% inhibition concentration) is determined as that concentration which brings about a 50% inhibition of the specific binding of tritiated prazosin to the alpha1 adrenoceptors in rat cardiac membranes.
The concentration-independent inhibitor constants K1 -alpha1 were determined from the IC50 values as stated by Y. Cheng and H. W.Prusoff in Biochem. Pharmacol. 22, 3099-3108 (1973).

5-HT-1A receptors = molecular target: T2, 5-HT-1A receptors (Rattus norvegicus, UniProt P19327); assay: Affinity for 5-HT-1A receptors: displacement of tritiated 8-OH-DPAT on rat brain membranes; format: binding; conditions: Ki from IC50 by Cheng and Prusoff, read-out: Inhibition constants at 5-HT1A-receptor (Ki)
T2 construct: 5-HT-1A receptors in rat brain membranes; from tissue; host or cells: rat brain membranes
T2 sequence (P19327 1-422): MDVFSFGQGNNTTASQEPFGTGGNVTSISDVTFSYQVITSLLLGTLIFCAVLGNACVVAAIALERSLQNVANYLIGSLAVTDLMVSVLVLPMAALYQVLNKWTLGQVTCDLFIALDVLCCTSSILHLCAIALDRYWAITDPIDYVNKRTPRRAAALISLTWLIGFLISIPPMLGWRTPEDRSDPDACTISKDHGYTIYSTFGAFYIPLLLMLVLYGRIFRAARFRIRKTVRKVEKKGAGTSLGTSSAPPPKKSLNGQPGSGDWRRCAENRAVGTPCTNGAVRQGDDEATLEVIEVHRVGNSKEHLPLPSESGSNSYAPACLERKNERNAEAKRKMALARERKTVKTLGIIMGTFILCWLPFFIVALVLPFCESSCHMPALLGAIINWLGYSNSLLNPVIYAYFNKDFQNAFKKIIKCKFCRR
Procedure: The affinity of compounds of the general formula I for 5-HT-1A receptors was determined by the method described by H. Gozlan, S. Elmestikawy, L. Pichat, J. Glowinski and M. Hamon in Nature 305, 140-142 (1983). In this method the competitive displacement of tritiated 8-OH-DPAT (8-hydroxy-(di-n-propylamino)tetralin) on rat brain membranes by the test substances is measured, and the IC50 (50% inhibition concentration) is determined as that concentration which brings about a 50% inhibition of the specific binding of tritiated 8-OH-DPAT to 5-HT-1A receptors in rat brain membranes.
The concentration-independent inhibitor constants K1 -alpha1 and K1 -5HT-1A were determined from the IC50 values as stated by Y. Cheng and H. W. Prusoff in Biochem. Pharmacol. 22, 3099-3108 (1973).

| Ki (alpha1 adrenoceptors) [nM] | Ki (5-HT-1A receptors) [nM] | SMILES |
| --- | --- | --- |
| 17.3 | 118 | COc1ccccc1N1CCN(CCNc2cnn(CCN(C)C)c(=O)c2Cl)CC1 [2-(Dimethylaminoethyl)-4-chloro-5-((2-(4-(2-methoxyphenyl)piperazinyl-1)ethyl)amino)-3(2H)-pyridazinone] |
| 10.8 | 86.3 | COc1ccccc1N1CCN(CCNc2cnn(CCO)c(=O)c2Cl)CC1 [2-Hydroxyethl-4-chloro-5-((2-(4-(2-methoxyphenyl)piperazinyl-1-)ethyl)amino-3(2H)-pyridazinone] |
| 17.7 | 18.2 | COc1ccccc1N1CCN(CCNc2ccnn(CCO)c2=O)CC1 [2-Hydroxyethyl-4-((2-(4-(2-methoxyphenyl)piperazinyl-1)ethyl)amino)-3(2H)-pyridazinone] |
| 128 | 55.8 | COc1ccccc1N1CCN(CCNc2cnn(CCO)c(=O)c2)CC1 [2-Hydroxyethyl-5-((2-(4-(2-methoxyphenyl)piperazinyl-1)ethyl)amino)-3(2H)-pyridazinone] |
| 2.42 | 25.6 | COc1ccccc1N1CCN(CCNc2c(Cl)cnn(CCO)c2=O)CC1 [2-Hydroxyethyl-5-chloro-4-((2-(4-(2-methoxyphenyl)piperazinyl-1)ethyl)amino)-3(2H)-pyridazinone] |
| 65.5 | 36.5 | Cn1nccc(NCCN2CCN(c3ccccc3O)CC2)c1=O [2-Methyl-4-((2-(4-(2-hydroxyphenyl)piperazinyl-1)ethyl)amino)-3(2H)-pyridazinone] |
| 171 | 272 | COc1cc(C)ccc1N1CCN(CCNc2ccnn(C)c2=O)CC1 [2-Methyl-4-((2-(4-(2-methoxy-4-methylphenyl)piperazinyl-1)ethyl)amino)-3(2H)-pyridazinone] |
| 73.6 | 186 | COc1ccc(C)cc1N1CCN(CCNc2ccnn(C)c2=O)CC1 [2-Methyl-4-((2-(4-(2-methoxy-5-methylphenyl)piperazinyl-1)ethyl)amino)-3(2H)-pyridazinone] |
| 175 | 4.56 | Cn1nccc(NCCN2CCN(c3cccc(C(F)(F)F)c3)CC2)c1=O [2-Methyl-4-((2-(4-(3-trifluoromethylphenyl)piperazinyl-1)ethyl)amino-3(2H)-pyridazinone] |
| 90.3 | 261 | Cn1nccc(NCCN2CCN(c3ccccc3)CC2)c1=O [2-Methyl-4-((2-(4-phenylpiperazinyl-1)ethyl)amino)-3(2H) pyridazinone] |
| 68 | 40.7 | CCN(CCN1CCN(c2ccccc2OC)CC1)c1ccnn(C)c1=O [2-Methyl-4-(ethyl-(2-(4-(2-methoxyphenyl)piperazinyl-1)ethyl)amino)-3(2H)-pyridazinone] |
| 7.59 | 36.8 | CCOc1ccccc1N1CCN(CCNc2cnn(C)c(=O)c2Cl)CC1 [2-Methyl-4-chloro-5-((2-(4-(2-ethoxyphenyl)piperazinyl-1)ethyl)amino)-3(2H)-pyridazinone] |
| 28.2 | 398 | Cn1ncc(NCCN2CCN(c3ccccc3F)CC2)c(Cl)c1=O [2-Methyl-4-chloro-5-((2-(4-(2-fluorophenyl)piperazinyl-1)ethyl)amino)-3(2H)-pyridazinone] |
| 31.4 | 478 | COc1cc(C)ccc1N1CCN(CCNc2cnn(C)c(=O)c2Cl)CC1 [2-Methyl-4-chloro-5-((2-(4-(2-methoxy-4-methylphenyl)piperazinyl-1)ethyl)amino)-3(2H)-pyridazinone] |
| 6.98 | 510 | COc1ccc(C)cc1N1CCN(CCNc2cnn(C)c(=O)c2Cl)CC1 [2-Methyl-4-chloro-5-((2-(4-(2-methoxy-5-methylphenyl)piperazinyl-1)ethyl)amino)-3(2H)-pyridazinone] |
| 94.2 | 28.5 | Cn1ncc(NCCN2CCN(c3cccc(C(F)(F)F)c3)CC2)c(Cl)c1=O [2-Methyl-4-chloro-5-((2-(4-(3-trifluoromethylphenyl)piperazinyl-1)ethyl)amino-3(2H)-pyridazinone] |

| Ki (alpha1 adrenoceptors) [nM] | Ki (5-HT-1A receptors) [nM] | SMILES |
| --- | --- | --- |
| 4.05 | 106 | Cn1ncc(NCCN2CCN(c3ccccc3)CC2)c(Cl)c1=O [2-Methyl-4-chloro-5-((2-(4-phenylpiperazinyl-1)ethyl)amino)-3(2H)-pyridazinone] |
| 32.2 | 50.7 | COc1ccccc1N1CCN(CCCNc2cnn(C)c(=O)c2Cl)CC1 [2-Methyl-4-chloro-5-((3-(4-(2-methoxyphenyl)-1-piperazinyl)propyl)amino)-3(2H)-pyridazinone] |
| 207 | 814 | COc1cc(C)ccc1N1CCN(CCNc2cnn(C)c(=O)c2)CC1 [2-Methyl-5-((2-(4-(2-methoxy-4-methylphenyl)piperazinyl-1)ethyl)amino)-3(2H)-pyridazinone] |
| 42.2 | – | COc1ccccc1N1CCN(CCNc2ccn[nH]c2=O)CC1 [4-((2-(4-(2-Methoxyphenyl)piperazinyl-1)ethyl)amino)-3(2H)-pyridazinone] |
| 13 | – | CCOc1ccccc1N1CCN(CCCNc2ccn[nH]c2=O)CC1 [4-((3-(4-(2-Ethoxyphenyl)piperazinyl-1)propyl)amino)-3(2H)pyridazinone] |
| 26.1 | – | COc1ccccc1N1CCN(CCCNc2ccn[nH]c2=O)CC1 [4-((3-(4-(2-Methoxyphenyl)piperazinyl-1)propyl)amino) -3(2H)-pyridazinone] |
| 4.64 | – | COc1ccccc1N1CCN(CCCCNc2ccn[nH]c2=O)CC1 [4-((4-(4-(2-Methoxyphenyl)piperazinyl-1)butyl)amino) -3(2H)-pyridazinone] |
| 2.95 | – | COc1ccccc1N1CCN(CCNc2c(Cl)cn[nH]c2=O)CC1 [5-Chloro-4-((2-(4-methoxyphenyl)piperazinyl-1)ethyl)amino)-3(2H)-pyridazinone] |
| 18 | – | CCn1nc(Cl)cc(NCCCN2CCN(c3ccccc3OC)CC2)c1=O [6-Chloro-2-ethyl-4-((3-(4-(2-methoxyphenyl)-1-piperazinyl)propyl)amino)-3(2H)-pyridazinone] |
| 9.6 | – | COc1ccccc1N1CCN(CCCNc2cc(Cl)nn(CCO)c2=O)CC1 [6-Chloro-2-hydroxyethyl-4-((3-(4-(2-methoxyphenyl)piperazinyl-1)propyl)amino)-3(2H)-pyridazinone] |
| 10 | – | CC(C)Oc1ccccc1N1CCN(CCNc2cc(Cl)n[nH]c2=O)CC1 [6-Chloro-4-((2-(4-(2-iso-propoxyphenyl)piperazinyl-1)ethyl)amino)-3(2H)-pyridazinone] |
| 12.8 | – | COc1ccccc1N1CCN(CCNc2cc(Cl)n[nH]c2=O)CC1 [6-Chloro-4-((2-(4-(2-methoxyphenyl)piperazinyl-1)ethyl)amino)-3(2H)-pyridazinone] |
| 7.49 | – | COc1cc(C)ccc1N1CCN(CCCNc2cc(Cl)n[nH]c2=O)CC1 [6-Chloro-4-((3-(4-(2-methoxy-4-methylphenyl)piperazinyl-1)propyl)amino)-3(2H)-pyridazinone] |
| 11 | – | COc1ccccc1N1CCN(CCCNc2cc(Cl)n[nH]c2=O)CC1 [6-Chloro-4-((3-(4-(2-methoxyphenyl)piperazinyl-1)propyl)amino)-3(2H)-pyridazinone] |
| 3.34 | – | COc1ccccc1N1CCN(CCCCNc2cc(Cl)n[nH]c2=O)CC1 [6-Chloro-4-((4-(4-(2-methoxyphenyl)-1-piperazinyl)butyl)amino)-3(2H)-pyridazinone] |
